These results are taken from patent US20120220600A1, “N-Oxide of 3-(2,6-dichloro-3,5-dimethoxy-phenyl) -1--1-methyl-urea” (priority 2009, published 2012).

Values after ≈ are worked out from the molar mass of the structure shown. Bounds are passed on as bounds.

Data set [1] deals with T1, hERG channels (Homo sapiens, UniProt Q12809).
T1 construct: expressed in transfected cells; host or cells: HEK293 (stably transfected), membrane preparation
The data set can be described thus: hERG radioligand binding assay ([3H]dofetilide competition). The note with it: [3H]dofetilide binding, HEK293 cell membranes stably transfected with hERG. The method, then: The ability of Compounds 1 and 2 to inhibit the hERG (potassium channel) activity was tested using a radioligand binding assay in which test compounds competed for [^3H]dofetilide binding to a membrane preparation of HEK293 cell membranes stably transfected with hERG channels.
A general note: Block of hERG is tested as a sign of cardiac risk.

Data set [2] can be described thus: Ionization constants (pKa1/pKa2). The data set is classed as physicochemical. The note with it: ionization constant for acidity. From the text:
(§1) Certain physicochemical properties of the compounds, as measured, are provided below: […]

Data set [3] is described as follows: In vitro metabolic stability in dog liver microsomes. The data set is classed as in vitro ADME. To be noted: for microsomal CLint at 1 μM: dog, liver microsomes. The method, then: (§2) The metabolism of drugs occurs mainly in the liver, which contains a wide variety of metabolic enzymes at concentrations higher than those observed in other organs. Metabolic stability or clearance (CL), particularly hepatic clearance (CLh), is a factor in determining drug concentration in blood. Generally, the higher the metabolic stability of a compound is, the lower the clearance of the compound.
(§3) The metabolic stability of each of Compounds 1 and 2 were determined at a concentration of 1 μM in mouse, rat, dog, monkey and human hepatic microsomal preparations. The compound tested, microsomal protein, and co-factors were combined, in duplicate, and incubated under appropriate conditions. Aliquots were removed at 0, 10 and 30 min, centrifuged and the supernatants analyzed by LC/MS/MS. Based on the percentage of the test compound remaining relative to the 0 min time point, the in vitro elimination rate constant, in vitro half-life (t1/2) and in vitro intrinsic clearance (CLint) parameters were calculate which allow for predicting the CLh values.
On the technique in general: Liver microsomes are a subcellular fraction often used to study metabolism.

Data set [4] can be described thus: In vitro metabolic stability in rat liver microsomes. The data set is classed as in vitro ADME. The note with it: for microsomal CLint at 1 μM: rat, liver microsomes. The method, then:
as §2, §3

Data set [5] is described as follows: In vitro metabolic stability in human liver microsomes. The note with it: for CLint Rank: 1 μM. The data set is classed as in vitro ADME. The method, then:
as §2, §3

Data set [6] can be described thus: In vitro metabolic stability in mouse liver microsomes. The data set is classed as in vitro ADME. The note with it: for microsomal CLint at 1 μM: mouse, liver microsomes. The method, then:
as §2, §3

A short description of data set [7]: Solubility in buffer (pH 1). The data set is classed as physicochemical. The note with it: pH 1, aqueous buffer.
Source text: as §1

Data set [8] is described as follows: Permeability across Caco-2 cell monolayers. The data set is classed as in vitro ADME, human. The note with it: human, Caco-2, 10 μM, pH 7.4, 120 min; for Papp A→B at 120 min, 10 μM / Papp B→A at 120 min, 10 μM: 37° C.; for Papp A→B at 120 min, 10 μM: apical to basolateral; for Papp B→A at 120 min, 10 μM: basolateral to apical; for efflux ratio at 120 min, 10 μM: read-out: Papp B-A/A-B. The method, then:
(§4) The permeability of Compounds 1 and 2 across the intestinal barrier and the involvement of drug efflux transporters such as P-glycoprotein (P-gp, MDR-1) were assessed in vitro using the Caco-2 cell line. […] Caco-2 cells were seeded on PET (polyethylene terephthalate) filters in a 96 well format and cultured for 18-25 days to develop monolayers. Test compound solutions (10 μM in transport buffer) were added to either the apical (A) or basolateral (B) side of the Caco-2 cell monolayer to measure the membrane permeability from the A to B compartments [Papp(A-B)] or from the B to A compartments [Papp(B-A]. The assay was carried out in HBSS (Hank's Balanced Salts) buffer, pH 7.4 (for both sides) for 120 min at 37° C. Samples were taken from apical or basolateral compartments at scheduled times (0 min and 120 min) and quantified by LC/MS/MS. The results are presented in Table 4.

The test system of data set [9] is Caco-2 cell monolayers. Briefly: Permeability across Caco-2 cell monolayers. To be noted: for Mechanism: Caco-2, based on B-A/A-B and clogP; for Permeability Ranking: Caco-2, based on Papp A-B. The data set is classed as in vitro ADME, human. The method, then:
as §4
(In general: Passage across Caco-2 layers is used to estimate intestinal permeability.)

A short description of data set [10]: In vitro metabolic stability in monkey liver microsomes. To be noted: for microsomal CLint at 1 μM: monkey, liver microsomes. The data set is classed as in vitro ADME. The method, then: as §2, §3

T1 sequence (Q12809 whole entry): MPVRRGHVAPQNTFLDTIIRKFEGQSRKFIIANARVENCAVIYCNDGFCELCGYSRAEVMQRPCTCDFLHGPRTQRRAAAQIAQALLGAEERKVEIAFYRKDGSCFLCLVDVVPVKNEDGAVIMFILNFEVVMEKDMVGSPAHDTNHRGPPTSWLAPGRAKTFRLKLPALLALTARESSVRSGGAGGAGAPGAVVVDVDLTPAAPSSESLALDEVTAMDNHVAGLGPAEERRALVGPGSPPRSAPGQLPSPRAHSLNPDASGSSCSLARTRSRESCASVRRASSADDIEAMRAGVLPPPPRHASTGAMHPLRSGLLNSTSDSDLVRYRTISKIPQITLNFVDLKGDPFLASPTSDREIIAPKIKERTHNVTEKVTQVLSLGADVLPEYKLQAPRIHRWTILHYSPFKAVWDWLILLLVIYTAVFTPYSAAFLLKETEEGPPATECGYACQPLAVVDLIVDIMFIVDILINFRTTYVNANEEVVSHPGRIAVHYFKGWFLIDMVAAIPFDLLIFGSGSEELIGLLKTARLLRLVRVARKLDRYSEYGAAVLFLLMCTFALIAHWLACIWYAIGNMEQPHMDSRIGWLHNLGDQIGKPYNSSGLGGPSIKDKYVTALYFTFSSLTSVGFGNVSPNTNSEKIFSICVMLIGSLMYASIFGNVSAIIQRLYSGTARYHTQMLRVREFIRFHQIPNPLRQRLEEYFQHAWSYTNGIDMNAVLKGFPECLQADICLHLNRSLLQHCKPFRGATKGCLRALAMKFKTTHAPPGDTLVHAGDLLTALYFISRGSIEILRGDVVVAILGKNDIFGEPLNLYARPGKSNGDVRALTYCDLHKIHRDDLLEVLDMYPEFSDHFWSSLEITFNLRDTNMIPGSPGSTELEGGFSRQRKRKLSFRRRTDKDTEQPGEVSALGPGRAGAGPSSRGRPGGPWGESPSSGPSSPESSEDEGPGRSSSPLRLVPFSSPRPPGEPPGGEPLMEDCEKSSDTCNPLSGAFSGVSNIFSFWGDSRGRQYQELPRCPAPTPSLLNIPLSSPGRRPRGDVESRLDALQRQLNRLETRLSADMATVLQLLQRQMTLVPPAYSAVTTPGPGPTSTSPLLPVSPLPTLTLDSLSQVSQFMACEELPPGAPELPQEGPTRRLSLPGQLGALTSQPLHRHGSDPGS

Consider `CC[N+]1([O-])CCN(c2ccc(Nc3cc(N(C)C(=O)Nc4c(Cl)c(OC)cc(OC)c4Cl)ncn3)cc2)CC1` [Compound 1, N-Oxide of 3-(2,6-Dichloro-3,5-dimethoxy-phenyl)-1-{6-[4-(4-ethyl-piperazin-1-yl)-phenylamino]-pyrimidin-4-yl}-1-methyl-urea], for which, in [1], the IC50 was 10.2 µM. The compound also registered a pKa1 in [2] of 4.5. This compound also gave a pKa2 in [2] of 3.2. The half-life at 1 μM in data set [3] worked out at 30.1 min; in data set [4] it was 46.8 min; in data set [5], 37.4 min; in data set [6] it was 55.2 min; in data set [10] it was 35.7 min. In addition, the “CLint Rank” value in data set [3] (1 μM), in [4] (1 μM), in data set [5], in data set [6] (1 μM) and in data set [10] (1 μM) was “low” in each case. Moreover, the microsomal CLint at 1 μM is 46.1 µL/min/mg in data set [3] (read-out: CLint); 29.6 µL/min/mg in data set [4] (read-out: CLint); 37.1 µL/min/mg in data set [5]; 25.1 µL/min/mg in data set [6] (read-out: CLint); 38.9 µL/min/mg in [10] (read-out: CLint). For the same compound, the solubility in [7] was 700 µM (≈ 404 µg/mL). The compound also yielded a Papp A→B at 120 min, 10 μM in [8] of 0.47 ×10⁻⁶ cm/s. The compound further returned a Papp B→A at 120 min, 10 μM in [8] of 9.51 ×10⁻⁶ cm/s. In [8], the efflux ratio at 120 min, 10 μM came to 20.2. Also, in data set [9], the Mechanism result is “Efflux (Efflux: B-A/A-B ≧3)”. Besides, the “Permeability Ranking” value in data set [9] is “Low”.
As to `CCN1CCN(c2ccc(Nc3cc(N(C)C(=O)Nc4c(Cl)c(OC)cc(OC)c4Cl)ncn3)cc2)CC1` [Compound 2, 3-(2,6-Dichloro-3,5-dimethoxy-phenyl)-1-{6-[4-(4-ethyl-piperazin-1-yl)-phenylamino]-pyrimidin-4-yl}-1-methyl-urea], the IC50 in data set [1] stood at 3 µM. In addition, in data set [2], the pKa1 came out at 8.2. Besides, the pKa2 in data set [2] turned out to be 3.4. For the same compound, the half-life at 1 μM in [3] is 3.5 min; in [4], 15.4 min; in data set [5], 35.2 min; in data set [6], 10.3 min; in data set [10], 3.8 min. The microsomal CLint at 1 μM in [3] (read-out: CLint) is 395 µL/min/mg; in [3] (read-out: CLint Rank) it was greater than 150 µL/min/mg; in data set [4] (read-out: CLint), 90.3 µL/min/mg; in data set [4] (read-out: CLint Rank), 50 to 150 µL/min/mg; in data set [5] it was 39.4 µL/min/mg; in data set [6] (read-out: CLint), 134 µL/min/mg. Moreover, the microsomal CLint at 1 μM in [6] (read-out: CLint Rank) is 50 to 150 µL/min/mg; in data set [10] (read-out: CLint), 364 µL/min/mg; in data set [10] (read-out: CLint Rank) it was greater than 150 µL/min/mg. The “CLint Rank” value in data set [5] is “low”. Besides, the concentration in solution in [7] (solubility) was 2000 µM (≈ 1120 µg/mL). This compound also came in with a Papp A→B at 120 min, 10 μM in data set [8] of 1.69 ×10⁻⁶ cm/s. The compound further showed a Papp B→A at 120 min, 10 μM in [8] of 1.59 ×10⁻⁶ cm/s. Besides, the efflux ratio at 120 min, 10 μM in data set [8] is 0.94. For the same compound, the Mechanism result in data set [9] was “Passive”. For the same compound, in [9], the “Permeability Ranking” value is “Medium”.

Broadly, the IC50 is the concentration that inhibits the measured activity by half. One may read the half-life as the time needed for the level to fall by half in the phase considered. The solubility is how much of the substance goes into solution per volume. The term Papp A→B denotes the apparent permeability from the apical to the basolateral side of a cell layer. For orientation: Papp B→A means the apparent permeability from the basolateral to the apical side of a cell layer.
